Measurements: patent US9943569B2, “Method for preventing or reducing postoperative pulmonary complications” (OSAKA UNIVERSITY, priority 2015, dated 2018)

Assays:
[1] = tested on: patients undergoing esophagectomy; experiment: SIRS duration after esophagectomy, randomized placebo-controlled phase II study; format: in vivo, human; conditions: ghrelin 0.5 μg/kg/h continuous i.v. infusion for 5 days, n=20
Description: Forty patients undergoing esophagectomy were randomly assigned to either the ghrelin group (n=20), which received continuous infusion of ghrelin (0.5 μg/kg/h) for 5 days, or the placebo group (n=20), which received pure saline for 5 days. The primary endpoint was SIRS duration. The secondary endpoints were the incidence of postoperative complications, time of a negative nitrogen balance, changes in body weight and composition, and levels of inflammatory markers, including C-reactive protein (CRP) and interleukin-6 (IL-6).
Forty patients with primary esophageal cancer who underwent esophagectomy were selected to participate in a randomized, placebo-controlled phase II study. The patients were selected based on the following eligibility criteria: (1) thoracic esophageal cancer treated by performing radical esophagectomy with gastric tube reconstruction; (2) age 20 to 75 years; (3) adequate functioning of major organs; (4) no other active malignancies; and (5) provision of written informed consent. […] The study was performed in a double-blind manner, and an independent researcher assessed outcomes.
The primary endpoint of this study was SIRS duration. […] The same amount of ghrelin was administered via intravenous infusion during the 5 days of treatment; the dose was calculated on the basis of body weight on the day before surgery. […]

GH secretion = experiment: Mode of ghrelin administration and GH secretion (unpublished data); format: in vivo; conditions: continuous infusion vs periodic injection
[2] = tested on: patients undergoing esophagectomy; experiment: Changes in body weight and body composition (dual-energy X-ray absorptiometry); format: in vivo, human; conditions: preoperatively vs POD10
Description: Dual-energy X-ray absorptiometry (Hologic QDR-2000; Hologic Inc, Waltham, Mass.) was used to assess total body composition, including lean body weight and fat body weight, of all participants.^35 These measurements were performed preoperatively and 10 days postoperatively with the subject in the supine position.
However, in the postoperative test, rapid turnover proteins used as nutritional markers, such as, transthyretin, transferrin, and retinol binding protein, were more highly retained in the ghrelin group than in the placebo group. This finding is consistent with the findings in previous studies that ghrelin prevented nutritional deterioration. […] We compared changes in weight and body composition between the 2 groups. During the study period, changes in body weight were monitored as a percentage of the weight on admission (preoperation).

[3] = dual-energy X-ray absorptiometry

## CCCCCCCC(=O)OC[C@H](NC(=O)[C@H](CO)NC(=O)CN)C(=O)N[C@@H](Cc1ccccc1)C(=O)N[C@@H](CC(C)C)C(=O)N[C@@H](CO)C(=O)N1CCC[C@H]1C(=O)N[C@@H](CCC(=O)O)C(=O)N[C@@H](Cc1cnc[nH]1)C(=O)N[C@@H](CCC(N)=O)C(=O)N[C@@H](CCCNC(=N)N)C(=O)N[C@H](C(=O)N[C@@H](CCC(N)=O)C(=O)N[C@@H](CCC(N)=O)C(=O)N[C@@H](CCCNC(=N)N)C(=O)N[C@@H](CCCCN)C(=O)N[C@@H](CCC(=O)O)C(=O)N[C@@H](CO)C(=O)N[C@@H](CCCCN)C(=O)N[C@@H](CCCCN)C(=O)N1CCC[C@H]1C(=O)N1CCC[C@H]1C(=O)N[C@@H](C)C(=O)N[C@@H](CCCCN)C(=O)N[C@@H](CC(C)C)C(=O)N[C@@H](CCC(N)=O)C(=O)N1CCC[C@H]1C(=O)N[C@@H](CCCNC(=N)N)C(=O)O)C(C)C [ghrelin]
[1]
  SIRS duration: 3.0 ± 2.9 days
GH secretion
  GH secretion by mode of ghrelin administration: continuous infusion was better than periodic injection
[2]
  percent decrease in total weight: −3.5±2.7%
[2]; [3]
  percent decrease in body fat weight: −3.2±5.0%
  percent decrease in lean body weight: −4.2%±3.0
